# Test results as given in US9856480B2, “Dnazyme for silencing the expression of EGFR” (DCB-USA LLC, priority 2013, dated 2018).
# Strand notation (5' to 3'): a small letter for the sugar, then the base; units joined by * are phosphorothioate-linked, units joined directly phosphodiester-linked; [ ] holds rarer units or linkages, { } end groups; capitals alone tell only the bases. d = 2'-deoxy (DNA)
# What was measured:
# H1975 xenograft tumor = assay: In vivo tumorigenesis assay, intratumoral DNAzyme; design: species or system Balb/c Nude mice
# Method: (§1) 8-week-old Balb/c Nude mice were subcutaneously inoculated with 2×10^6 H1975 cells. After 7 days, mice were randomly divided into two groups consisting of ten mice in each group (DzControl or DzT790M-1). 500 pmoles of DzControl or DzT790M-1 mixed with lipofectamine 2000 were injected intratumorally at frequency of twice per week until completion of the experiments. The sizes of tumor were measured every 3-4 days. All the animal studies were performed according to the protocols approved by the Laboratory Animal Center, Academia Sinica. After the mice were sacrificed, the tumor tissues were excised and fixed by 10% formalin and embedded in paraffin. Xenograft tumor slides were stained for hematoxylin and eosin and analyzed with microscopy.
# as §1, with “All the animal studies were performed according to the protocols approved by the Laboratory Animal Center, Academia Sinica.” left out, “microscopy. […] To assess the effects of DzT790M-1 on EGFR expression and downstream signaling, tumors taken from the Balb/c Nude mice were processed for western blotting.” for “microscopy.”
# [1] = tested on: T790M-harboring cancer cells; assay: Anti-proliferation comparison of T790M DNAzymes; assay type: cell-based
# T790M EGFR mRNA = assay: Real-time PCR of EGFR mRNA knockdown; assay type: cell-based, human; details: 100 nM with lipofectamine 2000, 48 h
# Method: (§2) A549, CL1-5, H1975, or CL97 was seeded onto 6-well at 3×10^5 cells/well and cultured overnight. Then, cells were separately treated with 100 nM DzControl or DzT790M-1 with lipofectamine 2000 (Invitrogen). After 48 h, total mRNA were extracted from DNAzyme-treated cells by Mestrisol following manufacturer's protocol. cDNA were synthesized by using RT III kit with random hexamers as primers (Invitrogen). The PCR primers were synthesized by Genomics BioSci & Tech (Taipei, Taiwan). The sequences of PCR primers are listed as follows: […]
# (§3) The parameters for PCR were: 95° C. for 10 min, then 25 cycles of PCR at 95° C. for 30 s, 60° C. for 30 s, and 72° C. for 60 s. 3% agarose gels were used for electrophoresis of PCR products. The intensity of bands were quantified by Image J. Quantitative RT-PCR was performed on 40 ng total mRNA with the LightCycler 480 system (Roche). The PCR mix contained 5 μl of 2× Probe Master mix, 100 nM of UPL probe (Roche Diagnostics, Penzberg, Germany), 200 nM of forward primer and reverse primer, 0.1 ul RNAseout (Invitrogen), and 0.025 ul RTIII enzyme (Invitrogen) in a total volume of 10 μl. PCR parameters were as follows: 50° C. for 40 min, then 45 cycles of PCR at 95° C. for 10 s, 60° C. for 10 s, and 72° C. for 2 s. Data were analyzed by LC480 software (Roche Diagnostics, Penzberg, Germany). The relative amount of EGFR mRNA was normalized to ACTB mRNA. The sequences of PCR primers are as follows: […]
# (§4) To examine the allele selectivity of DzT790M-1, EGFR mRNA knockdown efficiency was detected in two cell lines harboring wild-type EGFR (A549, CL1-5) and two cell lines containing EGFR T790M mutation (H1975, CL97). A549, CL1-5, H1975, or CL97 was seeded onto 6-well at 3×10^5 cells/well and cultured overnight. Then, cells were separately treated with 100 nM DzControl or DzT790M-1 with lipofectamine 2000 (Invitrogen). After 48 h, total mRNA was extracted. […] DzT790M-1 knocked down 68.2% and 77.4% T790M EGFR mRNA expression in H1975 and CL97 cells respectively. In contrast, in A549 and CL1-5 cells, only 1.1% and 19.2% wild-type EGFR mRNA expression was affected.
# wild-type EGFR mRNA = assay: Real-time PCR of EGFR mRNA knockdown; assay type: cell-based, human; details: 100 nM with lipofectamine 2000, 48 h
# Method: as §2, §3, §4
# EGFR T790M [2] = assay: Western immunoblotting of EGFR expression and downstream signaling in EGFR T790M mutant cell lines; details: 100 nM
# Method: (§5) Cells were harvested 72 h after transfecting with 100 nM DzC or DzT. 100 ng/ml EGF were added into culture medium 15 min before cell lysates were harvested. Cell lysates were analyzed by immunoblotting with indicated primary antibodies.
# (§6) Cells were harvested 72 h after transfecting with 100 nM cDzC or cDzT. 100 ng/ml EGF were added into culture medium 15 min before cell lysates were harvested. Cell lysates were analyzed by immunoblotting with indicated primary antibodies.
# (§7) A549, CL1-5, H1975, or CL97 was seeded onto 6-well at 3×10^5 cells/well and cultured overnight. […] The transfected A549 and CL1-5 cells were serum-starved for 24 h and treated with 100 ng/ml of EGF at 37° C. for 15 min. 72 h after transfection, cell were collected for analysis. Cells were washed twice by ice-cold PBS and then total protein was extracted by RIPA buffer with protease inhibitor (Roche). 50 μg of total protein from the supernatants were boiled for 5 min at 95° C. The samples were resolved on 10% SDS-PAGE gel and transferred onto nitrocellulose membranes. […] Secondary antibodies against rabbit IgG or mouse IgG was used at 1:5000 dilution. Protein bands on membrane were visualized by exposure to the chemiluminescence substrate.
# (§8) To examine the effects of DzT790M on protein expression level of EGFR and its downstream signaling, western immunoblotting was performed on DzT790M transfected cells. A549, CL1-5, H1975, or CL97 was seeded onto 6-well at 3×10^5 cells/well and cultured overnight. […] The transfected A549 and CL1-5 cells were serum-starved for 24 h and treated with 100 ng/ml of EGF at 37° C. for 15 min. 72 h after transfection, cell were collected for analysis. Cells were washed twice by ice-cold PBS and then total protein was extracted by RIPA buffer with protease inhibitor (Roche).
# (§9) The transfected CL1-5 cells were serum-starved for 24 h and treated with 100 ng/ml of EGF at 37° C. for 15 min. 72 h after transfection, cells were collected for western blotting analysis following the above mentioned procedure. Expression of EGFR and downstream signaling were examined by primary antibodies against human pEGFR (Y1068), tEGFR, pSTAT3 (Y705), tSTAT3, pAKT (S473), tAKT, pERK (T202/Y204), and tERK at 1:1000 dilution and β-actin at 1:10000 dilution, respectively.
# (§10) H1975 was seeded onto 6-well at 3×10^5 cells/well and cultured overnight. […] 72 h after transfection, cells were collected for western blotting analysis following the above mentioned procedure. Expression of EGFR and downstream signaling were examined by primary antibodies against human pEGFR(Y1068), tEGFR, pSTAT3 (Y705), tSTAT3, pAKT (S473), tAKT, pERK (T202/Y204), and tERK at 1:1000 dilution and β-actin at 1:10000 dilution, respectively.
# (§11) H1975^TM/LR and CL97^TM/GA cells were harvested 72 h after transfecting with DzC or DzT. […]
# EGFR T790M [3] = molecular target: EGFR T790M (Homo sapiens, UniProt P00533, L858R/T790M); assay: as above; details: H1975^TM/LR; 100 nM; 72 h; 100 ng/ml EGF 15 min
# Method: as §5, §6, §7, §8, §9, §10, §11
# [4] = 500 pmoles intratumorally twice per week
substance,measurement,setting,value
"DzT790M-1: 10-23 DNAzyme against EGFR T790M mRNA, arms 10/4, phosphorothioate ends: AGCTGCATGAGGCTAGCTACAACGAGAGC (DNA dA*dGdCdTdGdCdAdTdGdAdGdGdCdTdAdGdCdTdAdCdAdAdCdGdAdGdAdG*dC; further chemistry not fully specified)","total EGFR, pEGFR, pSTAT3, pAKT, pERK expression in xenograft tumor tissue (western blotting)",H1975 xenograft tumor; [4],significantly suppressed
same,tumor tissue histology (hematoxylin and eosin),H1975 xenograft tumor; [4],Severe necrosis
same,tumor growth,"H1975 xenograft tumor; 500 pmoles with lipofectamine 2000 intratumorally twice per week, vs DzControl",significantly suppressed
same,"anti-proliferation effect on T790M-harboring cancer cells, ranking among SEQ ID NOs:1-7",[1],most effective
same,remained EGFR mRNA expression (real-time PCR),T790M EGFR mRNA; CL97 cells,54%
same,remained EGFR mRNA expression (real-time PCR),T790M EGFR mRNA; H1975 cells,32%
same,remained EGFR mRNA expression (real-time PCR),wild-type EGFR mRNA; A549 cells,121%
same,remained EGFR mRNA expression (real-time PCR),wild-type EGFR mRNA; CL1-5 cells,95%
same,"phosphorylation of EGFR Y1068, STAT3 Y705, AKT S473 and ERK T202/Y204","EGFR T790M [2]; H1975 and CL97 cells, 72 h, ERK not in H1975 cells",decreased phosphorylation
same,EGFR protein expression,"EGFR T790M [2]; H1975 and CL97 cells, 72 h after transfection",significantly silenced
same,EGFR T790M expression and downstream signaling after EGF treatment,"EGFR T790M [2]; T790M mutant cells, 72 h, 100 ng/ml EGF 15 min",remains its suppression effect
same,"EGFR protein expression and downstream signaling including EGFR, STAT3, and ERK after EGF treatment",EGFR T790M [3],remained its suppression effect
